Reference: patent US6596712B2, “Treatment of carcinomas using squalamine in combination with other anti-cancer agents or modalities” (Genaera Corporation, priority 1996, dated 2003)

Columns and labels:
[1] = molecular target: T1, human NHE3 (Homo sapiens, UniProt P48764); experiment: NHE activity in PS 120 fibroblasts transfected with human NHE3 (BCECF pH change rate); type: cell-based
T1 construct: expressed in transfected cells; host or cells: PS 120 NHE-deficient fibroblasts
Description: The following describes the test used to determine that squalamine inhibits NHE3, but not NHE1 or NHE2. NHE deficient fibroblast cells (PS 120) transfected with an individual human NHE gene were loaded with a pH sensitive dye 2′7′-bis(2-carboxyethyl)-5,6-carboxyfluorescein (BCECF). NHE activity was measured by spectrofluorometric methods using this dye and by amiloride sensitive isotopic ^22Na^+cellular uptake. The cells were acidified by exposure to ammonium chloride in the absence of sodium to eliminate sodium and deactivate the proton pumps. The ammonium chloride was washed out by exposing the cells to tetramethyl ammonium chloride in bicarbonate free medium. […] Sodium then was added back at various concentrations (see the abscissa of FIGS. 5a and 5b) to drive the antiporters (human NHE3 in FIG. 5a and human NHE1 in FIG. 5b). The antiporters were driven at different rates, as evidenced by the cellular pH change rate, depending on the amount of sodium added.
As noted above, it has been concluded that squalamine inhibits NHE3 and not NHE1. […] Such inhibitors affect only the absolute number of protons that can be secreted by the cell (i.e., “Vmax”), if one looks at the kinetic characteristics of the inhibition. […] Note the following Table 1, which correlates to data collected in the test of FIG. 5a.

[2] = molecular target: T2, rabbit NHE1 (Oryctolagus cuniculus, UniProt P23791); experiment: NHE activity, rabbit NHE1; type: cell-based; details: similar tests
T2 construct: expressed in transfected cells
T2 sequence (P23791 whole entry): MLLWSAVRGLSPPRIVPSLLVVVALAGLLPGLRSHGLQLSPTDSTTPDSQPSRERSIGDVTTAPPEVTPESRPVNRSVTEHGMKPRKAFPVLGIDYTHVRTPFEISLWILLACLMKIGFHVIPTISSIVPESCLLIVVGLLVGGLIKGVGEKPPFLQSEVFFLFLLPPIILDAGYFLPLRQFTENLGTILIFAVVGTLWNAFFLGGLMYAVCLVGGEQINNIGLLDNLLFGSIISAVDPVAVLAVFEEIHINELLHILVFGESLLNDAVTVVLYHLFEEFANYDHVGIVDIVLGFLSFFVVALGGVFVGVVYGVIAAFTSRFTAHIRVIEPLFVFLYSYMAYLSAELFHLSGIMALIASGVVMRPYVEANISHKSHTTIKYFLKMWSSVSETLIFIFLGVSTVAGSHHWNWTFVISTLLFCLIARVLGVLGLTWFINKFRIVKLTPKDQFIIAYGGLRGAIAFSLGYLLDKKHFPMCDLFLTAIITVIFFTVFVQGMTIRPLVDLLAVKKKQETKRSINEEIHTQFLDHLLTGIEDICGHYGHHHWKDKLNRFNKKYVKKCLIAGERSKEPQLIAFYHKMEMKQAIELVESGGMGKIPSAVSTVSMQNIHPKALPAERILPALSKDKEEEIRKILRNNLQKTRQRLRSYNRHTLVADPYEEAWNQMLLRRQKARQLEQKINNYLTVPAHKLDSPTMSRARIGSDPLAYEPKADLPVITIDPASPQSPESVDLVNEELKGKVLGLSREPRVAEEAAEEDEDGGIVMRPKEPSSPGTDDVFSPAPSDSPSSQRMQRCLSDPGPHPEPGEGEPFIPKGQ

[3] = molecular target: T3, rabbit NHE2 (Oryctolagus cuniculus, UniProt P50482); experiment: NHE activity, rabbit NHE2; type: cell-based; details: similar tests
T3 construct: expressed in transfected cells
T3 sequence (P50482 whole entry): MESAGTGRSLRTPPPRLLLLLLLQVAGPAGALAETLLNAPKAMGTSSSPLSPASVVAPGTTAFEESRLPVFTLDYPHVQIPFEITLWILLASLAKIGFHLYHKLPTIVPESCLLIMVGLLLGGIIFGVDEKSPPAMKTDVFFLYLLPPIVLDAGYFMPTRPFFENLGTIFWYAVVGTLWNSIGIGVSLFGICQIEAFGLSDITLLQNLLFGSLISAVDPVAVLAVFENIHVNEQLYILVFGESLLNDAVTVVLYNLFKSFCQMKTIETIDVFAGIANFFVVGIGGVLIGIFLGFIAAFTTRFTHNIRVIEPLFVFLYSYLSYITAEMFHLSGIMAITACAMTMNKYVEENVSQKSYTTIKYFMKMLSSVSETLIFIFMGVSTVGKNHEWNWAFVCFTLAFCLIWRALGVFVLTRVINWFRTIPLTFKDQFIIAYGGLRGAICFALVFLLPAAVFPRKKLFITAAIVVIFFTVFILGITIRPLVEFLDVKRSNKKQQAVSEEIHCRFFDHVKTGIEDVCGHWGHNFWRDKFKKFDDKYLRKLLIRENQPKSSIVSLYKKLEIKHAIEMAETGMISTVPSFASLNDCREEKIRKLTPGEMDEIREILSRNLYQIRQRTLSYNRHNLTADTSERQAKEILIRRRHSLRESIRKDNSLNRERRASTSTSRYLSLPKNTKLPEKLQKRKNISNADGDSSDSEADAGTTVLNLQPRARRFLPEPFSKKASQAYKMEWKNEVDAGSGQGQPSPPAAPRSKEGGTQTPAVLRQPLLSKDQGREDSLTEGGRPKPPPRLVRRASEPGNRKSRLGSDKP

[4] = tested on: brush border membrane vesicle (BBMV) NHE; experiment: Brush border membrane vesicle (BBMV) NHE inhibition; type: biochemical; details: tissue pretreated; 30 minutes exposure
[5] = tested on: tumor induced capillary formation in rabbit cornea; experiment: Rabbit corneal micropocket assay (VX2 carcinoma stimulus); type: in vivo; details: for reduction of Angiogenesis Index (AI) vs untreated eyes: pellet 20% squalamine
Description: In determining whether a compound is antiangiogenic, the rabbit corneal micropocket assay is an accepted standard test. In this test, an incision is made in one rabbit cornea, and a stimulus is placed in the incision. The stimulus is used to induce blood vessel formation in the normally avascular corneal region. As one example, a solid tumor in a polymeric matrix can be placed in the cornea as the stimulus because the tumor will release a number of angiogenic growth factors to stimulate new capillary growth. The tumor-derived angiogenic growth factors stimulate the endothelial cells at the scleral junction in the eye to initiate blood vessel growth toward the stimulus. A second polymer pellet (e.g., an ethylene/vinyl acetate copolymer) is placed between the scleral junction and the stimulus. This polymer pellet is either empty (a negative control test pellet), or it contains a compound whose antiangiogenic characteristics are to be tested. The polymer pellet is used to provide a controlled release of the material to be studied. Because of the avascular cornea background in the rabbit cornea, one can visually assess the results qualitatively. In addition, the number of blood vessels can be counted and their length, etc., can be measured to provide a more quantitative evaluation of the results.
The VX2 rabbit carcinoma was implanted in 26 rabbit eyes, in the normally avascular corneal region, to act as an angiogenesis stimulus. […] The eyes were examined weekly using a slit lamp stereomicroscope for three weeks after tumor implantment, and the Angiogenesis Index (“AI”) was calculated (this calculation will be described in more detail below with reference to FIG. 8). […]
To provide a quantitative evaluation, the Angiogenesis Index (“AI”) of each eye was determined. […]
The vessel length (“Lvessel”) was then measured in each cornea. The vessel length is the length of the longest vessel measured from the cornea-scleral junction to the distal edge of the longest vessel growth. The Angiogenesis Index then is determined from these measurements by the following equation: [formula]

[6] = tested on: 9L and C6 rat glioma cells, human H80 glioma cells, VX2 rabbit carcinoma cells; experiment: Proliferation of tumor cell lines; type: cell-based
Description: In conducting this in vitro analysis, the following cell lines were tested: (a) bovine retinal endothelial cells; (b) 9L and C6 rat glioma cells; (c) human H80 glioma cells; and (d) VX2 rabbit carcinoma cells (the same type as the tumors implanted in the rabbit corneal micropocket assay test described above). The endothelial mitogen which was used in this analysis was VEGF at a concentration of 20 ng/ml.
The cells were allowed to attach overnight to tissue culture plates containing an optimized growth media. Following attachment, the cells were exposed to solvent only or 5 to increasing concentrations of squalamine (0, 10, 20, 30, 60, and 90 μg squalamine/ml). Cell growth was counted daily for three days using a Coulter Counter. A total of 10,000 cells per well were plated and each experimental concentration was tested in quadruplicate. The results were then averaged. The bovine retinal endothelial cells were grown and treated in an identical manner to the other cell lines, except that the growth of these cells was measured after the addition of 20 ng/ml of human recombinant VEGF to the cells prior to the squalamine treatment.
Percentage endothelial cell growth inhibition (%I) was determined by the following equation: [formula]

[7] = tested on: Calu-6 human lung adenocarcinoma line; experiment: Nude mouse xenograft model of lung cancer with cisplatin, Calu-6; type: in vivo; details: started on day 4 or 5, daily i.p.
Description: Studies in a nude mouse xenograft model of lung cancer have been carried out using several human lung cancer lines which differ in their growth rate. […] The experimental lung cancer model design involves subcutaneous injection of 5×10^6 tumor cells followed by a single injection of the chemotherapeutic drug on day 3 or 4. […] Groups of mice receiving squalamine alone started receiving the aminosterol on the same day as aminosterol treatment in the combination chemotherapy groups. Tumor volumes were then determined at termination of the experiment and compared.

[8] = molecular target: NHE1 (Homo sapiens, UniProt P19634); experiment: NHE1 activity in unstimulated melanoma cells; type: cell-based; design: endogenous in cells
NHE1, sequence (P19634 whole entry, species assumed, canonical isoform): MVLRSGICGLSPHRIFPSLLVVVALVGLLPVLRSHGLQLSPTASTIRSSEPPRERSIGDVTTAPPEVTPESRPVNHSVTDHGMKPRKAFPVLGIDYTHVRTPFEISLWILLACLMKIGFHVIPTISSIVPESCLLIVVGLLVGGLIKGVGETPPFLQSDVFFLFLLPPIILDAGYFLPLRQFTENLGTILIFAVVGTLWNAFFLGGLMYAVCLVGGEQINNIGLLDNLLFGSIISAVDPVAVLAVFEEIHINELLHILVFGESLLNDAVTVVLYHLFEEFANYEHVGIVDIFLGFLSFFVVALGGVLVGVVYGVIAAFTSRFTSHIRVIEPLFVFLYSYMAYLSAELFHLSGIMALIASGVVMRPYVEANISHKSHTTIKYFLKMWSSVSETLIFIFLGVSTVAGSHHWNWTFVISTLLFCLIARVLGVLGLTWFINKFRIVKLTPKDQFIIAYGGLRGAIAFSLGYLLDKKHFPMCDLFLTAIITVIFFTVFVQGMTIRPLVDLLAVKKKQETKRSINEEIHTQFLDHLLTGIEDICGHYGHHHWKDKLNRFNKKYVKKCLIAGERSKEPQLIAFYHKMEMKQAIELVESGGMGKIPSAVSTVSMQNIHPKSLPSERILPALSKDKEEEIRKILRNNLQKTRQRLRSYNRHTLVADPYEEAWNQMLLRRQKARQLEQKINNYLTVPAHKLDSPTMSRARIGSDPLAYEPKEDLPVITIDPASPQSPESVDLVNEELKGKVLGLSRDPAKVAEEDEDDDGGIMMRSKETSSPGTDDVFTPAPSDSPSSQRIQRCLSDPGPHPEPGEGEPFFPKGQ
Description: The effect of squalamine on NHE activity was measured to determine which isoforms of NHE were affected by squalamine. NHE activity can be measured under various different cellular conditions. Acid loading a cell activates all of the antiporters and permits measurement of NHE. NHE activity also can be measured after growth factor stimulation of the cell. Additionally, the NHE activity can be measured when the cell is in an unstimulated state, because the antiporters, even if unstimulated, continue to function at a slow, but non-zero rate. In each of these cellular conditions, NHE activity usually is measured in the absence of bicarbonate.
NHE3 in particular is relatively resistant to inhibition by the amilorides.

T1 sequence (P48764 26-834): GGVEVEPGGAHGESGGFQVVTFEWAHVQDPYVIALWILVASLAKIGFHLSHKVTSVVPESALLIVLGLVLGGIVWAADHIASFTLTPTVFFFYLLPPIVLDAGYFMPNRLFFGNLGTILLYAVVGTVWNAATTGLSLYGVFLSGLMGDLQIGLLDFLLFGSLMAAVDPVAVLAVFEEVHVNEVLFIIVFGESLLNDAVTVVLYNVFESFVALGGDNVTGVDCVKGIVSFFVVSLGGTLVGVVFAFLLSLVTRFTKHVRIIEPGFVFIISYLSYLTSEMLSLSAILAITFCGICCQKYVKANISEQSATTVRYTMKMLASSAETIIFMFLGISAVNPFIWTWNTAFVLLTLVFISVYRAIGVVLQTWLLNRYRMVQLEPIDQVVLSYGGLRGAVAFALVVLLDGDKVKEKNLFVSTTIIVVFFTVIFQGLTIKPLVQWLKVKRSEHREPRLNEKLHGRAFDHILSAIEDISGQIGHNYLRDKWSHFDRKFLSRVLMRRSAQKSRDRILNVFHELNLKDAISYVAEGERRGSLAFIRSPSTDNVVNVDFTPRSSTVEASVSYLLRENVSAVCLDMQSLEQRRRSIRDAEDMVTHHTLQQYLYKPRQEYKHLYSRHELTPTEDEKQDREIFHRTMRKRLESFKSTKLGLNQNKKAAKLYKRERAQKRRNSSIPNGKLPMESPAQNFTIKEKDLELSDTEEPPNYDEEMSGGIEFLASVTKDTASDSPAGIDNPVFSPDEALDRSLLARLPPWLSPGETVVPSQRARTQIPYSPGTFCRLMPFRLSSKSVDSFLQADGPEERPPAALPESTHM

CC(C)[C@@H](CC[C@@H](C)[C@H]1CC[C@H]2[C@@H]3[C@H](O)C[C@H]4C[C@@H](NCCCNCCCCN)CC[C@]4(C)[C@H]3CC[C@]12C)OS(=O)(=O)O [Squalamine, squalamine]
effect on human NHE3 antiporter (pH change rate) ([1]; 7 μg/ml squalamine, acid loaded cells): inhibits human NHE3
time before NHE3 inhibition effect was observed ([1]; transfected cells): at least 30 minutes
effect on rabbit NHE1 [2]: not affected
effect on rabbit NHE2 [3]: not affected
inhibition of BBMV NHE [4]: 51%
reduction of Angiogenesis Index (AI) vs untreated eyes ([5]; Day 14): 37%
reduction of Angiogenesis Index (AI) vs untreated eyes ([5]; Day 21): 43%
vasculature of tumors in sectioned corneas ([5]; histology after the test): essentially no vasculature associated with those tumors
growth of H80, C6 and VX2 cell lines as percentage of control ([6]; 30 μg/ml, 1, 2 and 3 days (FIG. 9)): not dramatically affected
cell proliferation by all tumor lines ([6]; 24 and 48 hours, up to 30 μg/ml): statistically unaffected
tumor growth, monotherapy [7]: minimal effects on tumor growth
NHE1 activity in unstimulated melanoma cells [8]: substantially down regulates the activity of the antiporter
